Data: PubChem BioAssay AID1053147 (Broad Institute, 2014)

Tested on: HepG2 BODIPY-LDL uptake, imaging, fold induction
Assay: fold increase of hepatoma cell fluorescent LDL uptake – imaging, BODIPY-LDL, cherry-pick, set 2, dose response (AID 1053147)
Settings: stronger effect = higher value

SMILES | fold induction x10
CN1C(=O)c2cc(NC(=O)c3ccc(C(F)(F)F)cc3)ccc2OC[C@@H]2O[C@H](CC(=O)NC3Cc4ccccc4C3)CC[C@@H]21 | 10
CN1C(=O)c2cc(NC(=O)c3ccc(C(F)(F)F)cc3)ccc2OC[C@@H]2O[C@@H](CC(=O)NC3Cc4ccccc4C3)CC[C@@H]21 | 25
